What was measured:
[1] = target: T1, Prostaglandin G/H synthase 2 (Homo sapiens, UniProt P35354)
T1 sequence (P35354 whole entry): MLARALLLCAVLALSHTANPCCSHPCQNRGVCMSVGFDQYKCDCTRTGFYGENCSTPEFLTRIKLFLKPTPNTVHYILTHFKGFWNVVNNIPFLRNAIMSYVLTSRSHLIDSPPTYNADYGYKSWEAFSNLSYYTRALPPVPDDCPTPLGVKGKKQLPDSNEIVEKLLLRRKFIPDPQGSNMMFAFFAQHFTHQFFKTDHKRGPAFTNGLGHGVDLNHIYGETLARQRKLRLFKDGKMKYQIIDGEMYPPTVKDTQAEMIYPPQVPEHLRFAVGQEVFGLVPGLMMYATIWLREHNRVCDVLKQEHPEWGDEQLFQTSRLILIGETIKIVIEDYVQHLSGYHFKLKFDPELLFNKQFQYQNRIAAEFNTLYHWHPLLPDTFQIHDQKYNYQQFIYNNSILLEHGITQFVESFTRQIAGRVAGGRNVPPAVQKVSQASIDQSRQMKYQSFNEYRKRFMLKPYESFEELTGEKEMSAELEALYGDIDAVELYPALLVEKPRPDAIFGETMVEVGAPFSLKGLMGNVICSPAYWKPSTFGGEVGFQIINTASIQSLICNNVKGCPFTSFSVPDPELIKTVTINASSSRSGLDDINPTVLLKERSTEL
Description: Inhibition of the human Prostaglandin G/H synthase 2 was determined by thin-layer chromatography assay

[2] = target: T2, Prostaglandin G/H synthase 1 (Ovis aries, UniProt P05979); assay: Inhibition of the ovine Prostaglandin G/H synthase 1 was determined by thin-layer chromatography assay
T2 sequence (P05979 whole entry): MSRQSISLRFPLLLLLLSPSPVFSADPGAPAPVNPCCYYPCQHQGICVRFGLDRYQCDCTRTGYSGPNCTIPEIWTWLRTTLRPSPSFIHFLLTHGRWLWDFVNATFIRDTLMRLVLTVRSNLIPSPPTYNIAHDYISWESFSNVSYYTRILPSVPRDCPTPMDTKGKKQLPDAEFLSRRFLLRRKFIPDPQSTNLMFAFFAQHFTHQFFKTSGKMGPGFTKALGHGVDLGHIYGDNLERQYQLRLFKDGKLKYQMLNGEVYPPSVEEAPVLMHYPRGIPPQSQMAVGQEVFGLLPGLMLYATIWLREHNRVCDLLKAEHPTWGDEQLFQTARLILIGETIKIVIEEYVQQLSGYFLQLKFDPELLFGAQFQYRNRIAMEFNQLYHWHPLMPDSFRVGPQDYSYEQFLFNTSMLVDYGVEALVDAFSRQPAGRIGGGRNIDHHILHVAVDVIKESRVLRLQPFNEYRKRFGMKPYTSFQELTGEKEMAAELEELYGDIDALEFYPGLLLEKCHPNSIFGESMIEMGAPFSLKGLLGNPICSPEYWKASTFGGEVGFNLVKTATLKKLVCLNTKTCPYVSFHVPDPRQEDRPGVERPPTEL

[3] = target: T3, Prostaglandin G/H synthase 2 (Mus musculus, UniProt Q05769, R106A)
Description: Inhibition of the Arg120Ala murine COX-2 mutant enzyme

[4] = Inhibitory concentration against prostaglandin E2
[5] = target: T4, Prostaglandin G/H synthase 2 (Mus musculus, UniProt Q05769); assay: Inhibition of the murine wild type Prostaglandin G/H synthase 2
T4 sequence (Q05769 whole entry): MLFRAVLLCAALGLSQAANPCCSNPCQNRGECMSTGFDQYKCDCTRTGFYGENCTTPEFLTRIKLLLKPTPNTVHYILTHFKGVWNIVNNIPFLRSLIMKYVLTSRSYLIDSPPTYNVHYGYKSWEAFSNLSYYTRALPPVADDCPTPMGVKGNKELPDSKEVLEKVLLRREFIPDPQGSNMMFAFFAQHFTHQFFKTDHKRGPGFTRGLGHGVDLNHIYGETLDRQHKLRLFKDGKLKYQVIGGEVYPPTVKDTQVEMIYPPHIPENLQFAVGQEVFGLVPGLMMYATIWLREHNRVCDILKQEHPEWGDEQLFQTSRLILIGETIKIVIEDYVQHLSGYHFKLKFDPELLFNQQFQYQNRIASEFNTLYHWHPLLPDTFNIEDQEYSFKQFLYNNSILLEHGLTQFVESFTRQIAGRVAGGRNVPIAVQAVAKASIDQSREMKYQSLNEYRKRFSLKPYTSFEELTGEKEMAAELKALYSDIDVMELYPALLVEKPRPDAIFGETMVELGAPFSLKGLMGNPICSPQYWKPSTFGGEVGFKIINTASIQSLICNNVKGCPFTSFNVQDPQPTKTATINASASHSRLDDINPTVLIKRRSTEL

[6] = target: T3, Prostaglandin G/H synthase 2; assay: Inhibition of the murine Arg120Ala mutant type COX-2

T3 sequence (Q05769 18-604 R106A limits assumed): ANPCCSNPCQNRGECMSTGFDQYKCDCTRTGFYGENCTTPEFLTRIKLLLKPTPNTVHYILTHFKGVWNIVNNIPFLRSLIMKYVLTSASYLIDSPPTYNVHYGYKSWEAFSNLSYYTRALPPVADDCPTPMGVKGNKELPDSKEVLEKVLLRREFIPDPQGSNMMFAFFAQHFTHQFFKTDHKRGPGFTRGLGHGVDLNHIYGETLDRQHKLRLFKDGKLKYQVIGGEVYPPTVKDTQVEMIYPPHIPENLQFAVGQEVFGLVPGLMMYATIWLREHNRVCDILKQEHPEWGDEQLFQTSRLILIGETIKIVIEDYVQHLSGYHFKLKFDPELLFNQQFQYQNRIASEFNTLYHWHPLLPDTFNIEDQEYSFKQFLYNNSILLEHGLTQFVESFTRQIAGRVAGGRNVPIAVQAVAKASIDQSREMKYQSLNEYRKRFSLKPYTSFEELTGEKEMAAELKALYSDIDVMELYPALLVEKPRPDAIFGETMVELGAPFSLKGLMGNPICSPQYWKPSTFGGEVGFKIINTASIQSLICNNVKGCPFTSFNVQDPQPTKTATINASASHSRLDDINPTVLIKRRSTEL

Structure (SMILES) | IC50 [1] [µM] | IC50 [2] [µM] | IC50 [3] [µM] | IC50 [4] [µM] | IC50 [5] [µM] | IC50 [6] [µM]
Cc1ccc(Cl)c(Nc2ccccc2C(=O)NCC(=O)O)c1Cl | 0.3 | 0.4 | – | – | – | –
Cc1ccc(Cl)c(Nc2ccccc2C(=O)NCCO)c1Cl | 1 | 0.6 | – | – | – | –
Cc1ccc(Cl)c(Nc2ccccc2C(=O)NOC(C)(C)C)c1Cl | 66 | 8 | – | – | – | –
Cc1ccc(Cl)c(Nc2ccccc2C(=O)NOCc2ccc([N+](=O)[O-])cc2)c1Cl | 66 | 0.2 | – | – | – | –
COC(=O)[C@@H](C)NC(=O)c1ccccc1Nc1c(Cl)ccc(C)c1Cl | 6 | 2.7 | – | – | – | –
Cc1ccc(Cl)c(Nc2ccccc2C(=O)NCCOc2ccccc2)c1Cl | 66 | 0.15 | 0.55 | 1.8 | – | –
COC(=O)CNC(=O)c1ccccc1Nc1c(Cl)ccc(C)c1Cl | 1.2 | 0.07 | – | – | – | –
CCCCCCCCNC(=O)c1ccccc1Nc1c(Cl)ccc(C)c1Cl | 0.06 | 0.05 | – | – | – | –
Cc1ccc(Cl)c(Nc2ccccc2C(=O)NCCc2ccccc2)c1Cl | 4 | 4.5 | – | – | – | –
Cc1ccc(Cl)c(Nc2ccccc2C(=O)NCCCCl)c1Cl | 2.4 | 0.06 | – | – | – | –
CCOC(=O)CNC(=O)c1ccccc1Nc1c(Cl)ccc(C)c1Cl | 4 | 0.2 | – | – | – | –
CNC(=O)c1ccccc1Nc1c(Cl)ccc(C)c1Cl | > 2 | > 2 | – | – | – | –
COCCNC(=O)c1ccccc1Nc1c(Cl)ccc(C)c1Cl | 3 | 0.14 | – | – | – | –
COC(=O)c1ccccc1Nc1c(Cl)ccc(C)c1Cl | 4 | 17 | – | – | – | –
CC(=O)Nc1ccc(OC(=O)c2ccccc2Nc2c(Cl)ccc(C)c2Cl)cc1 | > 20 | > 20 | – | – | – | –
COC(=O)[C@H](C)NC(=O)c1ccccc1Nc1c(Cl)ccc(C)c1Cl | 2.6 | 0.8 | – | – | – | –
COCCCNC(=O)c1ccccc1Nc1c(Cl)ccc(C)c1Cl | 11 | 0.25 | – | – | – | –
Cc1ccc(Cl)c(Nc2ccccc2C(=O)N[C@@H](C)C(=O)O)c1Cl | 33 | 6 | – | – | – | –
Cc1ccc(Cl)c(Nc2ccccc2C(=O)NNCc2ccccc2)c1Cl | 6.3 | 5 | – | – | – | –
Cc1ccc(Cl)c(Nc2ccccc2C(=O)NCCBr)c1Cl | 2 | 0.07 | – | – | – | –
Cc1ccc(Cl)c(Nc2ccccc2C(=O)NOCc2ccccc2)c1Cl | 66 | 1 | – | – | – | –
Cc1ccc(Cl)c(Nc2ccccc2C(=O)N[C@H](C)C(=O)O)c1Cl | > 33 | 8 | – | – | – | –
CONC(=O)c1ccccc1Nc1c(Cl)ccc(C)c1Cl | 55 | 0.5 | – | – | – | –
Cc1ccc(Cl)c(Nc2ccccc2C(=O)O)c1Cl [MECLOFENAMIC ACID] | 0.04 | 0.05 | – | – | 0.2 | 0.4
